Results from US20060052370A1, “Methods and compositions for treating nociceptive pain” (priority 2004, published 2006).
Entries after “also recorded” stand apart in the source; their conditions may differ. Like-named read-outs stand apart in the source and are kept apart here.

Experiments:
[1] = humans; cited from earlier work
[2] = memantine and morphine combination
[3] = humans; cited from earlier work; remark: listed apart in the source

Compound | Human PK (t½) [1] [h] | Tmax [1] [h] | cum. fraction ([2]; Time 1) | cum. fraction ([2]; Time 2) | cum. fraction ([2]; Time 4) | cum. fraction ([2]; Time 8) | cum. fraction ([2]; Time 12) | cum. fraction ([2]; Time 16) | cum. fraction ([2]; Time 20) | cum. fraction ([2]; Time 24) | Dose Dependent Tox [3]
NC12CC3CC(CC(C3)C1)C2 [Amantadine, 1-amino-adamantane] | 15 | 3 |  |  |  |  |  |  |  |  | 
CC12CC3CC(C)(C1)CC(N)(C3)C2 [Memantine, 1-amino-3,5-dimethyladamantane] |  | 3 | 0.2 | 0.3 | 0.4 | 0.5 | 0.6 | 0.7 | 0.8 | 0.9 | Dose escalation; also recorded: hallucination
CN1CC[C@]23c4c5ccc(O)c4O[C@H]2[C@@H](O)C=C[C@H]3[C@H]1C5 [Morphine] |  |  | 0.2 | 0.3 | 0.4 | 0.5 | 0.6 | 0.7 | 0.8 | 0.9 | 
CC(N)C12CC3CC(CC(C3)C1)C2 (stereo not shown) [Rimantadine, 1-(1-aminoethyl)adamantane] | 25 | 6 |  |  |  |  |  |  |  |  | 
